Measurements published in patent US20090048214A1, “Methods for Treating Renal Tumors Using 2, 4-Pyrimidinediamine Drug and Prodrug Compounds” (RIGEL PHARMACEUTICALS, INC, priority 2006, published 2009).

Key:
CCRF-CEM = settings: Leukemia, besylate salt
IGROV1 = settings: IGROV1, Ovarian Cancer; besylate salt
SF-268 = test: cells; settings: Homo sapiens
DU-145 [1] = test: cells; settings: Homo sapiens, DU-145, read-out: LC50
SK-MEL-28 [2] = settings: SK-MEL-28, Melanoma; besylate salt
SNB-19 = test: cells; settings: Homo sapiens
HCT-116 = test: cells; settings: Homo sapiens, HCT-116, read-out: LC50
CAKI-1 = test: cells; settings: Homo sapiens
SW-620 [3] = test: cells; settings: Homo sapiens, SW-620, read-out: LC50
OVCAR-3 = test: cells; settings: Homo sapiens
SK-MEL-28 [4] = test: cells; settings: Homo sapiens
NCI-H460 = test: cells; settings: Homo sapiens, NCI-H460, read-out: LC50
SW-620 [5] = settings: SW-620, Colon Cancer; besylate salt
TK-10 = settings: TK-10, Renal Cancer; besylate salt
OVCAR-4 = settings: OVCAR-4, Ovarian Cancer; besylate salt
DU-145 [6] = settings: DU-145, Prostate Cancer; besylate salt
BT-549 [7] = test: cells; settings: Homo sapiens
MCF7 = test: cells; settings: Homo sapiens
HOP-92 = test: cells; settings: Homo sapiens
UACC-257 = test: cells; settings: Homo sapiens
HOP-62 = settings: HOP-62, Non-Small Cell Lung Cancer; besylate salt
UO-31 = test: cells; settings: Homo sapiens
NCI-H322M = settings: Non-Small Cell Lung Cancer, besylate salt
SK-OV-3 [8] = test: cells; settings: Homo sapiens
SK-MEL-2 = settings: SK-MEL-2, Melanoma; besylate salt
NCI-H522 = test: cells; settings: Homo sapiens, NCI-H522, read-out: LC50
SK-MEL-5 = settings: SK-MEL-5, Melanoma; besylate salt
KM12 = test: cells; settings: Homo sapiens
PC-3 = test: cells; settings: Homo sapiens
RPM1-8226 = settings: RPM1-8226, Leukemia; besylate salt
UACC-62 = settings: UACC-62, Melanoma; besylate salt
BT-549 [9] = settings: BT-549, Breast Cancer; besylate salt
SK-OV-3 [10] = settings: SK-OV-3, Ovarian Cancer; besylate salt
OVCAR-8 = settings: OVCAR-8, Ovarian Cancer; besylate salt
HCC-2998 = settings: HCC-2998, Colon Cancer; besylate salt

`COc1cc(Nc2ncc(F)c(Nc3ccc4c(n3)NC(=O)C(C)(C)O4)n2)cc(OC)c1OC` [Compound 1] was tested, and the TGI (CCRF-CEM) was greater than 1.00E−4, the TGI (IGROV1) was greater than 1.00E−4 and the IC50 (SF-268; SF-268, read-out: G150) was 1.7 µM. It also gave a CC50 (SF-268; SF-268, read-out: LC50) greater than 100 µM, a CC50 (DU-145 [1]) greater than 100 µM and a TGI (SK-MEL-28 [2]) greater than 1.00E−4. The IC50 (SNB-19; SNB-19, read-out: G150) was greater than 100 µM, the CC50 (SNB-19; SNB-19, read-out: LC50) was greater than 100 µM and the CC50 (HCT-116) was greater than 100 µM. For the same compound, the IC50 (CAKI-1; CAKI-1, read-out: G150) was 0.0515 µM, the CC50 (CAKI-1; CAKI-1, read-out: LC50) was greater than 100 µM and the CC50 (SW-620 [3]) was greater than 100 µM. It also gave an IC50 (OVCAR-3; OVCAR-3, read-out: G150) greater than 100 µM, a CC50 (OVCAR-3; OVCAR-3, read-out: LC50) greater than 100 µM and an IC50 (SK-MEL-28 [4]; SK-MEL-28, read-out: G150) greater than 100 µM. It also gave a CC50 (SK-MEL-28 [4]; SK-MEL-28, read-out: LC50) greater than 100 µM, a CC50 (NCI-H460) greater than 100 µM and a TGI (SW-620 [5]) greater than 1.00E−4. It also gave a TGI (TK-10) greater than 1.00E−4, a TGI (OVCAR-4) greater than 1.00E−4 and a TGI (DU-145 [6]) greater than 1.00E−4. The IC50 (BT-549 [7]; BT-549, read-out: G150) was 2.43 µM, the CC50 (BT-549 [7]; BT-549, read-out: LC50) was greater than 100 µM and the IC50 (MCF7; MCF7, read-out: G150) was 2.72 µM. For the same compound, the CC50 (MCF7; MCF7, read-out: LC50) was greater than 100 µM, the IC50 (HOP-92; HOP-92, read-out: G150) was 0.41 µM and the CC50 (HOP-92; HOP-92, read-out: LC50) was greater than 100 µM. The IC50 (UACC-257; UACC-257, read-out: G150) was greater than 100 µM, the CC50 (UACC-257; UACC-257, read-out: LC50) was greater than 100 µM and the TGI (HOP-62) was greater than 1.00E−4. The IC50 (UO-31; UO-31, read-out: G150) was 0.596 µM, the CC50 (UO-31; UO-31, read-out: LC50) was greater than 100 µM and the TGI (NCI-H322M) was greater than 1.00E−4. The IC50 (SK-OV-3 [8]; SK-OV-3, read-out: G150) was 0.429 µM, the CC50 (SK-OV-3 [8]; SK-OV-3, read-out: LC50) was greater than 100 µM and the TGI (SK-MEL-2) was greater than 1.00E−4. The CC50 (NCI-H522) was greater than 100 µM, the TGI (SK-MEL-5) was greater than 1.00E−4 and the IC50 (KM12; KM12, read-out: G150) was 0.355 µM. For the same compound, the CC50 (KM12; KM12, read-out: LC50) was greater than 100 µM, the IC50 (PC-3; PC-3, read-out: G150) was 3.07 µM and the CC50 (PC-3; PC-3, read-out: LC50) was greater than 100 µM. The TGI (RPM1-8226) was greater than 1.00E−4, the TGI (UACC-62) was greater than 1.00E−4 and the TGI (BT-549 [9]) was greater than 1.00E−4. For the same compound, the TGI (SK-OV-3 [10]) was greater than 1.00E−4, the TGI (OVCAR-8) was greater than 1.00E−4 and the TGI (HCC-2998) was greater than 1.00E−4.
